How the values were obtained:
Rattus norvegicus [1] = assay: Antithrombotic activity was determined in rat upon oral administration at dose 20 mg/kg (4 hours before); assay type: functional
Rattus norvegicus [2] = assay: Antithrombotic activity was determined in rat upon oral administration at dose 3 mg/kg (4 hours before); assay type: functional

| SMILES | Activity (Rattus norvegicus [1]) [%] | Activity (Rattus norvegicus [2]) [%] |
| --- | --- | --- |
| CCc1cc(=O)oc2cc(OC3CCC(O)[C@H](O)[C@H]3O)ccc12 (some centres undefined) | 20 | – |
| CCc1cc(=O)oc2cc(OC3OCC(O)[C@H](O)[C@H]3O)ccc12 (some centres undefined) | – | 71 |
| CCc1cc(=O)oc2cc(OC3SCC(O)[C@H](O)[C@H]3O)ccc12 (some centres undefined) | – | 71 |
| CCc1cc(=O)oc2cc(OC3CCC(O)C(O)C3O)ccc12 (single isomer, unassigned; (-)) | 96 | – |
